The supplement of paper PMC11061612

Key:
MKN1 (Gastric Carcinoma) [1] = test: combination Emax (second highest fraction inhibited in the dose matrix, 72 h); higher = more inhibition; extreme values may be limits of the assay
In short: (§1)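 Cell lines grown in DMEM/F12 or RPMI with 10% FBS were plated in 1536-well plates and held 24 hours at 37°C, 5% CO2 before 72 hours of exposure to two-drug dose matrices, with DMSO typically at 0.2%. CellTiter-Glo 2.0 luminescence gave viability, which was converted to inhibition. Vehicle wells were set to 0 and blank wells to 1. Combination Emax is the second-highest inhibition in the matrix, and Bliss excess is the observed combination effect minus the expected EA + EB − EA·EB, where EA and EB are the single-agent effects.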

[2] = tested on: NCI-H841 (Small Cell Lung Carcinoma); test: as above
In short: as §1

WM1552C (Melanoma) = test: Bliss excess, mean over the matrix (fraction); higher = more synergy
In short: as §1

[3] = tested on: MDA-MB-436 (Breast Carcinoma); test: as above
In short: as §1

[4] = tested on: SW620 (Colorectal Carcinoma); test: as above
In short: as §1

[5] = tested on: LU-165 (Small Cell Lung Carcinoma); test: as above
In short: as §1

769-P (Kidney Carcinoma) = test: as above
In short: as §1

[6] = tested on: NCI-H441 (Lung Adenocarcinoma); test: as above
In short: as §1

MKN1 (Gastric Carcinoma) [7] = test: as above
In short: as §1

[8] = tested on: NCI-H841 (Small Cell Lung Carcinoma); test: as above
In short: as §1

[9] = tested on: JHU-022 (Oral Cavity Carcinoma); test: as above
In short: as §1
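For Bliss excess, mean over the matrix in this document: after 72 h of two-drug dosing.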

SMILES	combination Emax (MKN1 (Gastric Carcinoma) [1])	combination Emax [2]	Bliss excess (WM1552C (Melanoma))	Bliss excess [3]	Bliss excess [4]	Bliss excess [5]	Bliss excess (769-P (Kidney Carcinoma))	Bliss excess [6]	Bliss excess (MKN1 (Gastric Carcinoma) [7])	Bliss excess [8]	Bliss excess [9]
C[C@@H](Nc1cc(F)cc(F)c1)c1cc(C(=O)N(C)C)cc2c(=O)cc(N3CCOCC3)oc12 [AZD8186] + CC(=O)c1c(C)c2cnc(Nc3ccc(N4CCNCC4)cn3)nc2n(C2CCCC2)c1=O [Palbociclib] (first compound max 10 µM, 7x7, partner max 10 µM)	0.674	0.266	-0.0163	-0.0039	0.0238	-0.0313	0.0354	0.0155	0.0017	0.0118	-0.0376
O=C(c1cc(Cc2n[nH]c(=O)c3ccccc23)ccc1F)N1CCN(C(=O)C2CC2)CC1 [Olaparib] + Cc1c2c(nn1C)CSCc1cc(n(C)n1)CSc1cc(c3ccccc3c1)OCCCc1c(C(=O)O)n(C)c3c-2c(Cl)ccc13 [AZD5991] (first compound max 10 µM, 7x7, partner max 1 µM)	0.118	0.126	0.0329	-0.0211	-0.0572	-0.0374	0.0074	-0.054	-0.0332	-0.0522	-0.052
Cc1c2c(nn1C)CSCc1cc(n(C)n1)CSc1cc(c3ccccc3c1)OCCCc1c(C(=O)O)n(C)c3c-2c(Cl)ccc13 [AZD5991] + CC(=O)O[C@H]1C(=O)[C@@]2(C)[C@H]([C@H](OC(=O)c3ccccc3)[C@]3(O)C[C@H](OC(=O)[C@H](O)[C@@H](NC(=O)c4ccccc4)c4ccccc4)C(C)=C1C3(C)C)[C@]1(OC(C)=O)CO[C@@H]1C[C@@H]2O [Paclitaxel] (first compound max 1 µM, 7x7, partner max 3 µM)	0.824	0.973	0.0097	0.0273	0.0435	-0.0443	-0.0044	-0.0193	-0.103	0.0663	0.0286
O=C(c1cc(Cc2n[nH]c(=O)c3ccccc23)ccc1F)N1CCN(C(=O)C2CC2)CC1 [Olaparib] + CN(CC[C@H](CSC1=CC=CC=C1)NC2=C(C=C(C=C2)S(=O)(=O)NC(=O)C3=CC=C(C=C3)N4CCC(CC4)[C@H](C5=CC=CC=C5C6=CC=C(C=C6)Cl)O)S(=O)(=O)C(F)(F)F)CCO [AZD4320] (first compound max 10 µM, 7x7, partner max 1 µM)	0.165	0.0513	0.0005	-0.0288	-0.0535	-0.008	-0.0143	-0.0587	-0.0238	-0.0526	-0.0411
C=CCn1c(=O)c2cnc(Nc3ccc(N4CCN(C)CC4)cc3)nc2n1-c1cccc(C(C)(C)O)n1 [AZD1775] + Nc1ccn([C@@H]2O[C@H](CO)[C@@H](O)C2(F)F)c(=O)n1 [Gemcitabine] (first compound max 1 µM, partner max 0.3 µM)	0.927	0.726	-0.0467	0.0536	0.0165	0.0004		-0.0298	0.0171	0.0425	0.0276
C[C@@H]1COCCN1c1cc(C2([S@](C)(=N)=O)CC2)nc(-c2ccnc3[nH]ccc23)n1 [AZD6738] + Nc1ccn([C@@H]2O[C@H](CO)[C@@H](O)C2(F)F)c(=O)n1 [Gemcitabine] (first compound max 10 µM, 7x7, partner max 0.3 µM)	0.951	0.829	0.0225	0.0544	0.0454	-0.018	-0.0475	0.0418	0.0369	0.0975	0.0407
C[C@@H](Nc1cc(F)cc(F)c1)c1cc(C(=O)N(C)C)cc2c(=O)cc(N3CCOCC3)oc12 [AZD8186] + C1CN(CCC1(C(=O)N[C@@H](CCO)C2=CC=C(C=C2)Cl)N)C3=NC=NC4=C3C=CN4 [AZD5363] (first compound max 10 µM, 7x7, partner max 10 µM)	0.491	0.293	-0.0322	-0.0162	-0.0135	-0.086	-0.0459	-0.0392	-0.0304	-0.025	-0.0909
Cc1c2c(nn1C)CSCc1cc(n(C)n1)CSc1cc(c3ccccc3c1)OCCCc1c(C(=O)O)n(C)c3c-2c(Cl)ccc13 [AZD5991] + Nc1ccn([C@@H]2O[C@H](CO)[C@@H](O)C2(F)F)c(=O)n1 [Gemcitabine] (first compound max 1 µM, 7x7, partner max 0.3 µM)	0.624	0.567	-0.0232	-0.06	-0.0217	-0.0278	-0.0637	0.0106	-0.0205	0.0135	-0.0307
